The source of these data is patent US6417202B1, “Pyridylpyrrole compounds useful as interleukin-and TNF antagonists” (Pfizer Inc., priority 1996, dated 2002).

Molecules are shown by their SMILES.

`Cc1c(-c2ccncc2)[nH]c(-c2ccncc2)c1C(=O)CC(C)C` [Example 90, 4-Methyl-3-(3-methylbutanoyl)-2,5-di(4-pyridyl)-1H-pyrrole] displayed a melting point of 199 to 201 °C. With `COC(=O)c1c(-c2ccccc2)[nH]c(-c2ccncc2)c1C` [Example 91, Methyl 4-Methyl-2-phenyl-5-(4-pyridyl)pyrrole-3-carboxylate] the figure was 202 to 204 °C.

The melting point is the temperature, or range, at which the solid turns liquid.
